Source: patent US20080234351A1, “Combination Methods for Preserving Visual Acuity” (priority 2005, published 2008)

System: patients with type 1 or type 2 diabetes mellitus and moderately severe to very severe NPDR
Test: Clinical Study MBCM(b): Phase 3, randomized, double-masked, placebo-controlled study; frequency of sustained moderate visual loss (SMVL)
Type: in vivo, humans
Details: 32 mg/d orally, SMVL = ≧15 letters loss in best-corrected ETDRS visual acuity for 6-month period (30 to 36 months)
Description: MBCM(b) is a Phase 3, multicenter, parallel, randomized, double-masked, placebo-controlled study. Language from the MBCM(b) protocol is included below.
Patients with type 1 or type 2 diabetes mellitus and an Early Treatment Diabetic Retinopathy Study (ETDRS) retinopathy level ≧47A and ≦53E in at least one eye will be eligible to participate in the study. Visual acuity (best-corrected) will be assessed using the ETDRS visual acuity protocol. Retinopathy will be assessed using ETDRS 7 standard field 30 degree color stereoscopic fundus photography. The photographs will be independently assessed by the University of Wisconsin Fundus Photograph Reading Center.
Seventy sites have enrolled patients over a 15-month period. Of the 685 patients enrolled, it is expected that approximately 580 patients will complete the study. […]
Patients may be included in the study only if they meet all of the following general criteria and have at least one eye that meets all of the eye-specific criteria: • [1] […] ETDRS retinopathy level ≧47A and ≦53E without previous panretinal photocoagulation as determined using ETDRS 7 standard field 30-degree color stereoscopic fundus photography. • [3] […] Best-corrected visual acuity score of 45 or more letters as measured using the ETDRS visual acuity protocol (ETDRS Study report number 1, Arch. Opthalmol., 103:1796-1806, 1985) in an eye that has level ≧47A and ≦53E retinopathy. […]

With `CN(C)C[C@@H]1CCn2cc(c3ccccc32)C2=C(C(=O)NC2=O)c2cn(c3ccccc23)CCO1` [RBX, (S)-9-((dimethylamino)methyl)-6,7,10,11-tetrahydro-9H,18H-5,21:12,17-dimethenodibenzo(e,k)pyrrolo(3,4-h)(1,4,13)oxadiazacyclohexadecine-18,20(19H)-dione] the “% Of Patients with SMVL, Focal PC” value (patients with focal photocoagulation) was 8.6% and the “% Of Patients with SMVL, No Focal PC” value (patients without focal photocoagulation) was 2.7%.
